Experimental data: patent publication US20250208149A1, “WEE1 COMPOUND FOR TREATING UTERINE SEROUS CARCINOMA” (Recurium IP Holdings, LLC, priority 2022, published 2025)
“Also recorded” adds a separate entry of the source.

Key:
Format in all cases: cell-based
[1] = test system: OV17R ovarian cancer cells; experiment: ZN-c3 dose response, percent cell density (cell titer glow)
Description: FIG. 17 depicts the percent cell density of OV17R ovarian cancer cells after treatment with a 10-point dose response of ZN-c3 for 72 hours. OV17R has the S256F hotspot missense mutation in PPP2R1A. […] Percent cell density is calculated using cell titer glow analysis.
Having observed that siRNA mediated knockdown of PPP2R1A sensitized cancer cell lines to treatment with ZN-c3, it was also of interest to evaluate if CRISPR mediated PPP2R1A knockout produced a similar effect. Various cancer cell lines were transfected with a CRISPR guide RNA targeting PPP2R1A or nontargeting guide RNA and the cells were treated with a 10-point dose response of ZN-c3 for 72 hours. The 10-point dose response to ZN-c3 included the same dosages used in Example 1. As in Example 1, no media change was performed during the 72-hour ZN-c3 dose response evaluation period. Fewer than 20 cell passages were completed between the CRISPR mediated knockout and ZN-c3 treatment. CRISPR was performed by targeting PPP2R1A with a PPP2R1A sgRNA sequence. Percent cell density was calculated using cell titer glow analysis.
The ovarian cancer cell line OV17R was assessed for sensitivity to ZN-c3 by measurement of reduction in percent cell density (FIG. 17).

SW620 cells = experiment: ZN-c3 dose response, percent cell density (cell titer glow), PPP2R1A siRNA vs scrambled control; details: Homo sapiens, SW-620, 72 h
Description: (§1) FIG. 7 depicts the percent cell density of SW620 (a colorectal cancer cell line) cells after treatment with a 10-point dose response of ZN-c3 for 72 hours, comparing cells transfected with siRNA to PPP2R1A against those transfected with a scrambled control siRNA. Percent cell density is calculated using cell titer glow analysis. PPP2R1A siRNA transfected cells have approximately 1.9-fold increase in sensitivity to ZN-c3 (TABLE 4).
(§2) The effect of PPP2R1A knockdown on influencing cancer cell susceptibility to ZN-c3 was evaluated. Various cancer cell lines were transfected with PPP2R1A siRNA or control scrambled siRNA and the cells were treated with a 10 point dose response of ZN-c3 for 72 hours. Percent cell density was calculated using cell titer glow analysis. The PPP2R1A siRNA targeted the following bases Chr.19: 52189802-52226425. SiRNA transfection was started 48 hours prior to treatment with ZN-c3. […]
(§3) A colorectal cancer cell line SW620 was treated with PPP2R1A siRNA or control siRNA and transfected cells were assessed for sensitivity to ZN-c3 by measurement of reduction in percent cell density (FIG. 7). PPP2R1A siRNA mediated knockdown of PPP2R1A was evaluated by comparison of PPP2R1A expression in conditions treated with siCTRL and siPPPR12A (FIG. 8).

[2] = test system: HEC1B endometrial cancer cells; experiment: Percent inhibition of cell growth, ZN-c3, LB-100 or ZN-c3+LB-100 after siCTRL or siPPP2R1A (cell titer glow); details: HEC1B, 72 hours, ZN-c3 200 nM, LB-100 1 μM
Description: FIG. 21 depicts the percent inhibition of cell growth in HEC1B endometrial cancer cells after treatment with ZN-c3 alone, the PP2A catalytic inhibitor LB-100 alone, or the combination of ZN-c3+LB-100 after siRNA mediated knockdown of PPP2R1A. […] Percent inhibition is calculated using cell titer glow analysis.
Following observations that both knockdown and knockout of PPP2R1A could sensitize cancer cells to Zn-C3, the effects of pharmacological inhibition of PPP2R1A with the catalytic inhibitor LB-100 were evaluated. Various cancer cell lines were treated with ZN-c3 alone, the PP2A catalytic inhibitor LB-100 alone, or the combination of ZN-c3+LB-100. As in Example 1 and Example 2, the treatment period was 72 hours and percent inhibition was calculated using cell titer glow analysis.
The endometrial cancer cell line HEC1B was also assessed for sensitivity to ZN-c3 alone, LB-100 alone, or the combination of ZN-c3+LB-100 following treatment with siCTRL or siPPP2R1A (FIG. 21).

Hs578T cells = experiment: ZN-c3 dose response, percent cell density (cell titer glow), PPP2R1A siRNA vs scrambled control; details: Homo sapiens, Hs-578T, 72 h
Description: as §1, with “FIG. 5” for “FIG. 7”, “of Hs578T” for “of SW620”, “(a breast” for “(a colorectal”, “approximately 2.4-fold” for “approximately 1.9-fold”, “(TABLE 3).” for “(TABLE 4).”
as §2
as §3, with “breast” for “colorectal”, “Hs578T” for “SW620”, “5).” for “7).”, “6).” for “8).”

H1975 lung cancer cells = experiment: ZN-c3 dose response, percent cell density (cell titer glow), CRISPR knockout of PPP2R1A vs non-targeting guide RNA; details: Homo sapiens, NCI-H1975, 72 h
Description: FIG. 15 depicts the percent cell density of H1975 lung cancer cells after treatment with a 10-point dose response of ZN-c3 for 72 hours, comparing cells transduced with a non-targeting guide RNA to against those with genetic knockout of PPP2R1A after transduction with a CRISPR guide RNA targeting PPP2R1A. Percent cell density is calculated using cell titer glow analysis. PPP2R1A CRISPR knockout cells have approximately 1.9 fold increase in sensitivity to ZN-c3 (TABLE 8).
Having observed that siRNA mediated knockdown of PPP2R1A sensitized cancer cell lines to treatment with ZN-c3, it was also of interest to evaluate if CRISPR mediated PPP2R1A knockout produced a similar effect. Various cancer cell lines were transfected with a CRISPR guide RNA targeting PPP2R1A or nontargeting guide RNA and the cells were treated with a 10-point dose response of ZN-c3 for 72 hours. […] Percent cell density was calculated using cell titer glow analysis.
The lung cancer cell line H1975 was treated with a CRISPR guide RNA targeting PPP2R1A or nontargeting guide RNA and transfected cells were assessed for sensitivity to ZN-c3 by measurement of reduction in percent cell density (FIG. 15). CRISPR mediated knockout of PPP2R1A was evaluated by comparison of PPP2R1A expression in conditions treated with nontargeting guide RNA and PPPR12A targeting CRISPR guide RNA (FIG. 16).

EC50 ([1]; OV17R cells (PPP2R1A S256F), 72 hours): 139 nM | EC50 (SW620 cells; siCTRL): 450 nM | EC50 (SW620 cells; siPPP2R1A): 236 nM | EC50 (H1975 lung cancer cells; sgNT (non-targeting guide RNA)): 516 nM | EC50 (H1975 lung cancer cells; sgPPP2R1A (CRISPR knockout)): 275 nM
SMILES: C=CCn1c(=O)c2cnc(Nc3ccc(N4CCN(C)CC4)cc3)nc2n1-c1ccc2c(n1)[C@@](O)(CC)CC2 [ZN-c3, (R)-2-allyl-1-(7-ethyl-7-hydroxy-6,7-dihydro-5H-cyclopenta[b]pyridin-2-yl)-6-((4-(4-methylpiperazin-1-yl)phenyl)amino)-1,2-dihydro-3H-pyrazolo[3,4-d]pyrimidin-3-one]
sensitivity of cell line to ZN-c3 treatment ([1]; OV17R cells (PPP2R1A S256F hotspot missense mutation)): highly susceptible; also recorded: highly sensitive | percent inhibition of cell growth ([2]; siCTRL): approximately 30% | percent inhibition in siPPP2R1A treated cells compared to siCTRL treated cells ([2]; siPPP2R1A): approximately the same | EC50 (Hs578T cells; siCTRL): 170 nM | EC50 (Hs578T cells; siPPP2R1A): 71.3 nM
